Source: patent US8034810B2, “Arylsulfonamido-substituted hydroxamic acid derivatives” (Novartis AG, priority 1999, dated 2011)

Tested on: EGFP transfected HT1080 cells
Assay: Metastasis model with EGFP transfected HT1080 cells, lung fluorescence in nude mice
Format: in vivo
Settings: tumor cells i.v., p.o. 60 mg/kg twice a day, lungs on day 17
Method: EGFP transfected HT1080: Nude mice were injected in the tail vein a suspension of tumor cells [2×10^6 cells/0.1 ml of PBS (phosphate buffered saline)]. Animals were dosed with compounds p.o. at −1 hr and +5 hrs relative to the time of the cell injection at the first day (day 0). After that the animals were dosed twice a day, firstly at 9-10:30 a.m. and secondly at 5:30-7:00 p.m. Compounds were administered as a suspension in 1% carboxymethyl cellulose (Wako, Japan) at a dose of 60 mg/kg twice a day. The vehicle alone was administered to the control group. On day 17, the lungs were removed from mice after sacrificing the animals. The removed lung tissues were divided into pieces of approximately 2-3 mm in diameter and then ca. 100 mg of tissues were suspended in 0.2 ml PBS in the microcentrifuge tubes followed by gentle homogenization and centrifugation. […] The fluorescence intensity was determined by using fluorescence plate reader (Cytoflour II) at the excitation and emission wavelength of 485 and 530 nm, respectively. The obtained fluorescence was normalized per lung using the wet lung weight. In this test a decrease in the fluorescence of 74% compared to the vehicle alone was determined for the compound of Example 68.

With `COc1ccc(CN(CC(=O)NO)S(=O)(=O)c2ccc(OCCCCl)cc2)cc1` [Example 68, 2-{[4-(3-chloro-propoxy)-benzenesulfonyl]-(4-methoxy-benzyl)amino}-N-hydroxy-acetamide] the “decrease in the fluorescence compared to the vehicle alone” value was 74%.
